Here are results for 31 compounds from patent US20250002487A1, “HETEROCYCLIC COMPOUNDS AND USES THEREOF” (Ventus Therapeutics U.S., Inc., priority 2021, published 2025).

Structures are written as SMILES.

Sequence of human-cGAS (h-cGAS) (Q8N884 whole entry): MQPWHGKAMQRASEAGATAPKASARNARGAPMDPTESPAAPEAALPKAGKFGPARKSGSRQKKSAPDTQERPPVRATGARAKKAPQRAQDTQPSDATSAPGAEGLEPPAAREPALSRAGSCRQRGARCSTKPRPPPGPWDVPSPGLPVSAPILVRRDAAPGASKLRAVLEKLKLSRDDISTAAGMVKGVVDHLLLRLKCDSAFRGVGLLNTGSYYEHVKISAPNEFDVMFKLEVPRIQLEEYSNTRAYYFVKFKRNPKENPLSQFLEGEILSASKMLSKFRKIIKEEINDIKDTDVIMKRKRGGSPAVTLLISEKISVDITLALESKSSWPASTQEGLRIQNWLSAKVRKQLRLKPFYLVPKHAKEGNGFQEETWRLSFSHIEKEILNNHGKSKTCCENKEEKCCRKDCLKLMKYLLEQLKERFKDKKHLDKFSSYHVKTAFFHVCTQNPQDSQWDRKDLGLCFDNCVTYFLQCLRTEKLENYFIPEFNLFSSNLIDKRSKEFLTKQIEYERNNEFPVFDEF

The target in the assay is human-cGAS (h-cGAS) (Homo sapiens, UniProt Q8N884). Briefly: hcGAS Kinase-Glo Assay. The class given is biochemical. The settings on record: 40 nM h-cGAS, 100 μM ATP, 100 μM GTP, 25 nM dsDNA, 3 h incubation, read-out: hcGAS potency IC50. The procedure, abridged:
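Kinase-Glo luminescent read-out of human cGAS activity, following the published Lama et al. (2019) protocol with slightly altered conditions. Inhibition reported as IC50.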
Background: Kinase-Glo reads ATP consumption through a luciferase reaction.
As a reminder, the IC50 is the concentration at which inhibition is half-maximal. With `CSc1nnc(NC(=O)c2onc3cc(F)ccc23)s1` [Compound 222, 6-fluoro-N-[5-(methylsulfanyl)-1,3,4-thiadiazol-2-yl]-2,1-benzoxazole-3-carboxamide], the IC50 was 500 to 1000 nM.

For the compound `CSc1nnc(NC(=O)c2cc3ccccc3c(=O)o2)s1` [Compound 207, N-(5-(methylthio)-1,3,4-thiadiazol-2-yl)-1-oxo-1H-isochromene-3-carboxamide], the IC50 is ≥ 1000 nM. The figure for `CSc1nnc(NC(=O)c2onc3ccc(C(O)c4ccccc4)cc23)s1` (stereo not shown) [Compound 166, 5-(hydroxy(phenyl)methyl)-N-(5-(methylthio)-1,3,4-thiadiazol-2-yl)benzo[c]isoxazole-3-carboxamide] is ≥ 1000 nM. The result for `CSc1nnc(NC(=O)c2onc3ccc(Oc4ccccc4)cc23)s1` [Compound 165, N-(5-(methylthio)-1,3,4-thiadiazol-2-yl)-5-phenoxybenzo[c]isoxazole-3-carboxamide] reads 500 to 1000 nM; that for `O=C(Nc1nnc(-c2ccccc2Cl)s1)c1c[nH]c(=O)o1` [Compound 61, N-(5-(2-chlorophenyl)-1,3,4-thiadiazol-2-yl)-2-oxo-2,3-dihydrooxazole-5-carboxamide], 100 to 500 nM; that for `CSc1nnc(NC(=O)c2cc(-c3ccc(C)cc3)cc(=O)o2)s1` [Compound 250, N-(5-methylsulfanyl-1,3,4-thiadiazol-2-yl)-6-oxo-4-(p-tolyl)pyran-2-carboxamide], 100 to 500 nM. The figure for `CSc1nnc(NC(=O)c2cc(-c3ccc(Cl)s3)on2)s1` [Compound 95, 5-(5-chlorothiophen-2-yl)-N-(5-(methylthio)-1,3,4-thiadiazol-2-yl)isoxazole-3-carboxamide] is 500 to 1000 nM; for `CSc1nnc(NC(=O)c2nnc(N(C)C(C)c3ccccc3)o2)s1` (stereo not shown) [Compound 114, 5-[methyl(1-phenylethyl)amino]-N-[5-(methylsulfanyl)-1,3,4-thiadiazol-2-yl]-1,3,4-oxadiazole-2-carboxamide] it is 500 to 1000 nM. On to `CSc1nnc(NC(=O)c2nnc(-c3ccccc3)o2)s1` [Compound 235, N-[5-(methylsulfanyl)-1,3,4-thiadiazol-2-yl]-5-phenyl-1,3,4-oxadiazole-2-carboxamide], for which the concentration for half-maximal inhibition (IC50) fell in the range of 500 to 1000 nM. `O=C(Nc1nnc(-c2ccccc2Cl)s1)c1ccc(O)c(=O)o1` [Compound 64, N-(5-(2-chlorophenyl)-1,3,4-thiadiazol-2-yl)-3-hydroxy-2-oxo-2H-pyran-6-carboxamide]: the IC50 was < 100 nM.

`Cc1ccc(-c2nnc(NC(=O)c3onc4ccccc34)s2)cc1` [Compound 29, N-(5-(p-tolyl)-1,3,4-thiadiazol-2-yl)benzo[c]isoxazole-3-carboxamide]: the IC50 is ≥ 1000 nM. The figure for `O=C(Nc1nnc(-c2ccccc2Cl)s1)c1cc(-c2ncc3ccccc3n2)no1` [Compound 155, N-(5-(2-Chlorophenyl)-1,3,4-thiadiazol-2-yl)-3-(quinazolin-2-yl)isoxazole-5-carboxamide] is 100 to 500 nM.

`CSc1nnc(NC(=O)c2cc(-c3ccccc3-c3ccc(CC(=O)O)cc3)cc(=O)o2)s1` [Compound 176]: the IC50 was 500 to 1000 nM.

For `CSc1nnc(NC(=O)c2cc(-c3ccc(F)cc3)cc(=O)o2)s1` [Compound 239, 4-(4-fluorophenyl)-N-(5-methylsulfanyl-1,3,4-thiadiazol-2-yl)-6-oxo-pyran-2-carboxamide], the IC50 lay within 100 to 500 nM. The figure for `O=C(Nc1nnc(-c2ccccc2C(F)(F)F)s1)c1onc2ccccc12` [Compound 143, N-(5-(2-(trifluoromethyl)phenyl)-1,3,4-thiadiazol-2-yl)benzo[c]iso-xazole-3-carboxamide] is 100 to 500 nM; for `CSc1nnc(NC(=O)c2cc(-c3ccc4ccccc4c3)cc(=O)o2)s1` [Compound 245, N-(5-methylsulfanyl-1,3,4-thiadiazol-2-yl)-4-(2-naphthyl)-6-oxo-pyran-2-carboxamide] it is 100 to 500 nM; for `CSc1nnc(NC(=O)c2cc(-c3cccc4c3ncn4C)cc(=O)o2)s1` [Compound 274, 4-(1-methyl-1H-benzo[d]imidazol-4-yl)-N-(5-(methylthio)-1,3,4-thiadiazol-2-yl)-2-oxo-2H-pyran-6-carboxamide] it is 100 to 500 nM. The figure for `CSc1nnc(NC(=O)c2cc(Nc3ccccc3)cc(=O)o2)s1` [Compound 268, N-(5-(methylthio)-1,3,4-thiadiazol-2-yl)-2-oxo-4-(phenylamino)-2H-pyran-6-carboxamide] is 100 to 500 nM. With `CSc1nnc(NC(=O)c2ccnc(-c3ccccc3)c2)s1` [Compound 266, N-(5-(methylthio)-1,3,4-thiadiazol-2-yl)-2-phenylisonicotinamide], the IC50 was ≥ 1000 nM.

For `O=C(Nc1nnc(-c2ccccc2F)s1)c1onc2ccccc12` [Compound 26, N-(5-(2-fluorophenyl)-1,3,4-thiadiazol-2-yl)benzo[c]isoxazole-3-carboxamide], the IC50 is 100 to 500 nM. Turning to `CSc1nnc(NC(=O)c2cc(-c3ccccc3Cl)no2)s1` [Compound 216], the IC50 is 500 to 1000 nM. The figure for `CSc1nnc(NC(=O)c2nnc(N3CCCC(O)C3)o2)s1` (stereo not shown) [Compound 109, 5-(3-hydroxypiperidin-1-yl)-N-(5-(methylthio)-1,3,4-thiadiazol-2-yl)-1,3,4-oxadiazole-2-carboxamide] is ≥ 1000 nM. The result for `O=C(Nc1nnc(-c2ccccc2Cl)s1)c1cc(C2CC2)no1` [Compound 39, N-(5-(2-chlorophenyl)-1,3,4-thiadiazol-2-yl)-3-cyclopropylisoxazole-5-carboxamide] reads 100 to 500 nM.

Consider `O=C(Nc1nnc(-c2ccccc2Cl)s1)c1nnc(N2CCC[C@@H]2c2ccccc2)o1` [Compound 118, (R)-N-(5-(2-chlorophenyl)-1,3,4-thiadiazol-2-yl)-5-(2-phenylpyrrolidin-1-yl)-1,3,4-oxadiazole-2-carboxamide], for which the IC50 was 100 to 500 nM. As to `O=C(Nc1nnc(-c2cnccn2)s1)c1onc2ccccc12` [Compound 130, N-[5(pyrazin-2-yl)-1,3,4-thiadiazol-2-yl]-2,1-benzoxazole-3-carboxamide], the IC50 was 500 to 1000 nM. For `O=C(Nc1nnc(-c2ccccc2Cl)s1)c1cc(-c2ncc(F)cn2)no1` [Compound 156, N-(5-(2-Chlorophenyl)-1,3,4-thiadiazol-2-yl)-3-(5-fluoropyrimidin-2-yl)isoxazole-5-carboxamide], the IC50 was in the range of 100 to 500 nM. Consider `COc1ccc2c(C(=O)Nc3nnc(SC)s3)onc2c1` [Compound 231, 6-methoxy-N-[5-(methylsulfanyl)-1,3,4-thiadiazol-2-yl]-2,1-benzoxazole-3-carboxamide], for which the concentration for half-maximal inhibition (IC50) was 100 to 500 nM. Regarding `CSc1nnc(NC(=O)c2onc3ccc(C(=O)c4ccccc4)cc23)s1` [Compound 167, 5-benzoyl-N-(5-(methylthio)-1,3,4-thiadiazol-2-yl)benzo[c]isoxazole-3-carboxamide], the half-inhibitory concentration (IC50) was ≥ 1000 nM. The result for `COC(=O)c1cc(C(=O)Nc2nnc(-c3ccccc3Cl)s2)on1` [Compound 1, Methyl 5-((5-(2-chlorophenyl)-1,3,4-thiadiazol-2-yl)carbamoyl)isoxazole-3-carboxylate] reads 100 to 500 nM.

`CSc1nnc(NC(=O)c2onc3ccc(CO)cc23)s1` [Compound 191, 5-(hydroxymethyl)-N-(5-(methylthio)-1,3,4-thiadiazol-2-yl)benzo[c]isoxazole-3-carboxamide]: the IC50 is ≥ 1000 nM. `CSc1nnc(NC(=O)c2onc3c(CO)cccc23)s1` [Compound 168, 7-(hydroxymethyl)-N-(5-(methylthio)-1,3,4-thiadiazol-2-yl)benzo[c]isoxazole-3-carboxamide]: the IC50 was in the range of 500 to 1000 nM.
